From patent US20240116985A1, “STAPLED PEPTIDES AND METHODS THEREOF” (priority 2020, published 2024)
Like-named read-outs stand apart in the source and are kept apart here.

Experiments:
[1] = biological target: T1, beta-catenin/TCF4 engagement (Homo sapiens, UniProt P35222); assay: Nano-BRET target engagement assay (B-cat-Halo & TCF4-Luc in HEK293 cells); type: cell-based; settings: read-out: NanoBRET Abs IC50
T1 construct: expressed in transfected cells; host or cells: HEK293
T1 sequence (P35222 1-781): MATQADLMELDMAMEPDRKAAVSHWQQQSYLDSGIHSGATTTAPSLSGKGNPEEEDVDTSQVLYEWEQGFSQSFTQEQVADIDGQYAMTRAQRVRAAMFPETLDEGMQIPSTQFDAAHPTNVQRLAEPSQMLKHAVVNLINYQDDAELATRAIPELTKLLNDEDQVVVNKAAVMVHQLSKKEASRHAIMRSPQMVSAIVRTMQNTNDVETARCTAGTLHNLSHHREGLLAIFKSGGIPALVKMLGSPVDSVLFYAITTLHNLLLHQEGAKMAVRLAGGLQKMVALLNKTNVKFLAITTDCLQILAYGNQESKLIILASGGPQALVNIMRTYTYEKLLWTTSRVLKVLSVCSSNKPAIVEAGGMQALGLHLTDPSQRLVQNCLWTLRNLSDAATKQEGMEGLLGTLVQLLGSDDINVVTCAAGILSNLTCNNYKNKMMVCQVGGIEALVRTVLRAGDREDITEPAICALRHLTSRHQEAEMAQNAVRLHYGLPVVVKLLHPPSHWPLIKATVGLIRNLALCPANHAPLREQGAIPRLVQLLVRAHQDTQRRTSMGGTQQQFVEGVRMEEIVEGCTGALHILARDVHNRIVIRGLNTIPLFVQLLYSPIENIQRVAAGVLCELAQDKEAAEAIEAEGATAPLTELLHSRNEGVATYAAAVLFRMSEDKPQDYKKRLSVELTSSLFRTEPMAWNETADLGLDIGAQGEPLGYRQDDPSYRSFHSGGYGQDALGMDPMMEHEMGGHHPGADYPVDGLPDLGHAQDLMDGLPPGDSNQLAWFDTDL

[2] = biological target: T2, full-length beta-Catenin (Uniprot ID P35222) (Homo sapiens, UniProt P35222); assay: Fluorescence polarization IC50 (beta-catenin / 5FAM-TCF4 10-53 competition); type: binding; settings: fluorescence polarization; read-out: beta-Catenin FP IC50
T2 construct: 10 nM full-length beta-Catenin (Uniprot ID P35222)
T2 sequence (P35222 1-781): T1 sequence (P35222 1-781)

COLO320DM cells = type: cell-based; settings: COLO320DM cells, read-out: COLO320DM Proliferation Abs IC50
Procedure: COLO320DM proliferation assay IC50: In some embodiments, inhibition of cell proliferation by provided technologies were assessed using cell lines related to or from certain conditions, disorders or diseases. In some embodiments, cell proliferation was assessed in COLO320DM cells. In some embodiments, assessment was performed using the following procedure: On Day 1, cultured COLO320DM cells in a T75 flask were trypsinized in 3 mL of 0.25% trypsin/EDTA for 5 min and quenched with 10 mL RPMI-1640+4% HI FBS assay media. The cells were spun down at 1200 rpm for 5 min, the cell pellet collected and re-suspended at 5000 cells/mL in assay media. Using a Combi liquid handler, cells were dispensed (50 uL, 250 cells/well) into three 384 well plates. Plates were incubated at 37° C., […]. On day 2, compounds were added. A liquid handling system was used to prepare the compound dilution and dispense compound into assay plates. The compounds were serially diluted 1/2 in 90% DMSO to create a 7 point dose curve. From compound plate, 100 nL of compound were dispensed directly into wells of the assay plates to create a dose curve starting at 20 uM and ending at 313 nM. Assay plates were incubated at 37° C., […]. On day 6, assay plates were removed from the incubator and allowed to sit at room temperature for 30 min. Using a liquid handler, 20 uL of CellTiter Glo reagent was added to each well. The assay plates were shaken for 2 min and allowed to sit on the bench for 10-15 minutes. The assay plates were read using the CellTiter Glo protocol on a GloMax microplate reader, and the data analyzed using GraphPad Prism.

Row | Structure (SMILES) | IC50 ([1]; absolute IC50) | IC50 [2] | IC50 (COLO320DM cells; absolute IC50) | IC50 [1] | IC50 (COLO320DM cells)
1 | CC(=O)N1CCC[C@]12CC=CCCCC1(CCCC=CCCCOC(=O)N3CC[C@@](C(=O)N[C@@H](Cc4ccccc4C(F)(F)F)C(=O)N[C@@H](Cc4csc5ccccc45)C(=O)N[C@@H](CCC(=O)N4CCOCC4)C(N)=O)(C3)NC(=O)[C@H](CC(C)C)NC(=O)[C@H](Cc3ccccc3)NC(=O)[C@H](C)NC(=O)[C@H](C)NC(=O)[C@H](Cc3cccc(C(=O)O)c3)NC(=O)[C@H](CC(=O)O)NC1=O)NC(=O)[C@H](CC(C)(C)C)NC(=O)[C@H](CC(=O)O)NC2=O (stereo partly drawn) [I-2541, Ac-PL3-Asp-Npg-B5-Asp-3COOHF-Ala-Ala-Phe-Leu-PyrS2-2F3MeF-BztA-MorphGln-NH2] | 4.7 µM | 0.021 µM | > 20 µM |  | 
2 | CCCC[C@@H]1NC(=O)[C@H](Cc2ccccc2)NC(=O)[C@H](C)NC(=O)[C@H](C)NC(=O)[C@H](Cc2cccc(C(=O)O)c2)NC(=O)[C@H](CC(=O)O)NC(=O)C2(CCCC=CCCCOC(=O)N3CC[C@@](C(=O)N[C@@H](Cc4ccccc4C(F)(F)F)C(=O)N[C@@H](Cc4csc5ccccc45)C(=O)N[C@@H](CCC(=O)N4CCOCC4)C(N)=O)(C3)NC1=O)CCCC=CC[C@]1(CCCN1C(C)=O)C(=O)N[C@@H](CC(=O)O)C(=O)N[C@@H](CC(C)(C)C)C(=O)N2 (stereo partly drawn) [I-2542, Ac-PL3-Asp-Npg-B5-Asp-3COOHF-Ala-Ala-Phe-nLeu-PyrS2-2F3MeF-BztA-MorphGln-NH2] | 4 µM | 0.023 µM | > 20 µM |  | 
3 | CC(=O)N1CCC[C@]12CC=CCCCC1(CCCC=CCCCOC(=O)N3CC[C@@](C(=O)N[C@@H](Cc4ccsc4)C(=O)N[C@@H](Cc4csc5ccccc45)C(=O)N[C@H](CO)C(=O)N[C@@H](C)C(N)=O)(C3)NC(=O)[C@@H](CO)NC(=O)[C@H](Cc3ccccc3)NC(=O)[C@H](C)NC(=O)C(C)(C)NC(=O)[C@H](Cc3cccc(C(=O)O)c3)NC(=O)[C@H](CC(=O)O)NC1=O)NC(=O)[C@H](CC(C)(C)C)NC(=O)[C@H](CC(=O)O)NC2=O (stereo partly drawn) [I-2576, Ac-PL3-Asp-Npg-B5-Asp-3COOHF-Aib-Ala-Phe-dSer-PyrS2-3Thi-BztA-dSer-Ala-NH2] |  | 0.006 µM |  | 16.1 µM | > 20 µM
4 | CC(=O)N1CCC[C@]12CC=CCCCC1(CCCC=CCCCOC(=O)N3CC[C@@](C(=O)N[C@@H](Cc4ccsc4)C(=O)N[C@@H](Cc4csc5ccccc45)C(=O)N[C@@H](CO)C(=O)N[C@@H](C)C(N)=O)(C3)NC(=O)[C@H](CO)NC(=O)[C@H](Cc3ccccc3)NC(=O)[C@H](C)NC(=O)C(C)(C)NC(=O)[C@H](Cc3cccc(C(=O)O)c3)NC(=O)[C@H](CC(=O)O)NC1=O)NC(=O)[C@H](CC(C)(C)C)NC(=O)[C@H](CC(=O)O)NC2=O (stereo partly drawn) [I-2577, Ac-PL3-Asp-Npg-B5-Asp-3COOHF-Aib-Ala-Phe-Ser-PyrS2-3Thi-BztA-Ser-Ala-NH2] |  | 0.007 µM |  | 2.7 µM | 9.5 µM
5 | CC(=O)NCCCC[C@@H]1NC(=O)[C@H](Cc2ccccc2)NC(=O)[C@H](C)NC(=O)C(C)(C)NC(=O)[C@H](Cc2cccc(C(=O)O)c2)NC(=O)[C@H](CC(=O)O)NC(=O)C2(CCCC=CCCCOC(=O)N3CC[C@@](C(=O)N[C@@H](Cc4ccccc4C(F)(F)F)C(=O)N[C@@H](Cc4csc5ccccc45)C(=O)N[C@@H](C)C(=O)N[C@@H](C)C(N)=O)(C3)NC1=O)CCCC=CC[C@]1(CCCN1C(C)=O)C(=O)N[C@@H](CC(=O)O)C(=O)N[C@@H](CC(C)(C)C)C(=O)N2 (stereo partly drawn) [I-2579, Ac-PL3-Asp-Npg-B5-Asp-3COOHF-Aib-Ala-Phe-AcLys-PyrS2-2F3MeF-BztA-Ala-Ala-NH2] |  | 0.041 µM |  | 4.7 µM | 15.3 µM
